Reference: the supplement of paper PMC10307832

Key:
Test in all cases: relative viability (nuclei count vs DMSO), 5 days (fraction); higher = more cells survive
[1] = tested on: NCI-H1651
Outline: (§1)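 The day after seeding in 1536-well plates, lung cancer cell lines were treated by pin tool with a single drug, or with a fixed anchor-drug dose together with five library-drug doses (not always all listed) in √10 steps. After 5 days, a combined fix-and-stain solution (final 0.05% Triton X-100, 1% formaldehyde, 1 ug/ml Hoechst) was added. Nuclei counted on 4× images gave relative viability as treated counts over vehicle counts, reported as the median of duplicate plates.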

[2] = tested on: NCI-H1648
Outline: as §1

[3] = tested on: ChaGo-K-1
Outline: as §1

[4] = tested on: SK-MES-1
Outline: as §1

[5] = tested on: NCI-H522
Outline: as §1

[6] = tested on: NCI-H1703
Outline: as §1

[7] = tested on: IA-LM
Outline: as §1

CC1(C)CCC(c2ccc(Cl)cc2)=C(CN2CCN(c3ccc(C(=O)NS(=O)(=O)c4ccc(N[C@H](CCN5CCOCC5)CSc5ccccc5)c(S(=O)(=O)C(F)(F)F)c4)cc3)CC2)C1 [Navitoclax] + Nc1nc2[nH]cc(CCc3ccc(C(=O)N[C@@H](CCC(=O)O)C(=O)O)cc3)c2c(=O)[nH]1 [Pemetrexed] (partner 0.2 µM)
relative viability ([1]; first compound 0.005 µM): 0.682
relative viability ([1]; first compound 0.01581 µM): 0.552
relative viability ([1]; first compound 0.05 µM): 0.503
relative viability ([1]; first compound 0.1581 µM): 0.633
relative viability ([1]; first compound 0.5 µM): 0.548
relative viability ([2]; first compound 0.005 µM): 0.868
relative viability ([2]; first compound 0.01581 µM): 0.747
relative viability ([2]; first compound 0.1581 µM): 0.563
relative viability ([2]; first compound 0.5 µM): 0.833
relative viability ([3]; first compound 0.005 µM): 0.258
relative viability ([3]; first compound 0.01581 µM): 0.26
relative viability ([3]; first compound 0.05 µM): 0.25
relative viability ([3]; first compound 0.1581 µM): 0.268
relative viability ([3]; first compound 0.5 µM): 0.265
relative viability ([4]; first compound 0.005 µM): 0.913
relative viability ([4]; first compound 0.01581 µM): 1.05
relative viability ([4]; first compound 0.05 µM): 1.03
relative viability ([4]; first compound 0.1581 µM): 0.884
relative viability ([4]; first compound 0.5 µM): 0.927
relative viability ([5]; first compound 0.005 µM): 1.07
relative viability ([5]; first compound 0.01581 µM): 1.28
relative viability ([5]; first compound 0.05 µM): 0.885
relative viability ([5]; first compound 0.1581 µM): 1.11
relative viability ([5]; first compound 0.5 µM): 1.13

CC1(C)CCC(c2ccc(Cl)cc2)=C(CN2CCN(c3ccc(C(=O)NS(=O)(=O)c4ccc(N[C@H](CCN5CCOCC5)CSc5ccccc5)c(S(=O)(=O)C(F)(F)F)c4)cc3)CC2)C1 [Navitoclax] + NC(=O)Nc1cc(-c2cccc(F)c2)sc1C(=O)N[C@H]1CCCNC1 [AZD7762] (partner 0.2 µM)
relative viability ([1]; first compound 0.005 µM): 0.485
relative viability ([1]; first compound 0.01581 µM): 0.488
relative viability ([1]; first compound 0.05 µM): 0.335
relative viability ([1]; first compound 0.1581 µM): 0.474
relative viability ([1]; first compound 0.5 µM): 0.466
relative viability ([2]; first compound 0.005 µM): 0.799
relative viability ([2]; first compound 0.01581 µM): 0.669
relative viability ([2]; first compound 0.1581 µM): 0.667
relative viability ([2]; first compound 0.5 µM): 0.604
relative viability ([6]; first compound 0.005 µM): 0.128
relative viability ([6]; first compound 0.01581 µM): 0.161
relative viability ([6]; first compound 0.05 µM): 0.149
relative viability ([6]; first compound 0.5 µM): 0.122
relative viability ([3]; first compound 0.005 µM): 0.879
relative viability ([3]; first compound 0.01581 µM): 0.875
relative viability ([3]; first compound 0.05 µM): 0.655
relative viability ([3]; first compound 0.1581 µM): 0.883
relative viability ([3]; first compound 0.5 µM): 0.803
relative viability ([5]; first compound 0.005 µM): 0.748
relative viability ([5]; first compound 0.01581 µM): 0.987
relative viability ([5]; first compound 0.05 µM): 1.12
relative viability ([5]; first compound 0.1581 µM): 0.832
relative viability ([5]; first compound 0.5 µM): 0.9

CC1(C)CCC(c2ccc(Cl)cc2)=C(CN2CCN(c3ccc(C(=O)NS(=O)(=O)c4ccc(N[C@H](CCN5CCOCC5)CSc5ccccc5)c(S(=O)(=O)C(F)(F)F)c4)cc3)CC2)C1 [Navitoclax] + O=C(CCCCCCC(=O)Nc1ccccc1)NO [Vorinostat] (partner 1 µM)
relative viability ([1]; first compound 0.005 µM): 0.582
relative viability ([1]; first compound 0.01581 µM): 0.575
relative viability ([1]; first compound 0.05 µM): 0.466
relative viability ([1]; first compound 0.1581 µM): 0.573
relative viability ([1]; first compound 0.5 µM): 0.598
relative viability ([2]; first compound 0.005 µM): 0.292
relative viability ([2]; first compound 0.01581 µM): 0.471
relative viability ([2]; first compound 0.1581 µM): 0.412
relative viability ([2]; first compound 0.5 µM): 0.431
relative viability ([3]; first compound 0.005 µM): 0.789
relative viability ([3]; first compound 0.01581 µM): 0.786
relative viability ([3]; first compound 0.05 µM): 0.496
relative viability ([3]; first compound 0.1581 µM): 0.759
relative viability ([3]; first compound 0.5 µM): 0.781
relative viability ([7]; first compound 0.005 µM): 0.884
relative viability ([7]; first compound 0.01581 µM): 0.937
relative viability ([7]; first compound 0.05 µM): 0.919
relative viability ([7]; first compound 0.1581 µM): 0.875
relative viability ([7]; first compound 0.5 µM): 0.965
relative viability ([4]; first compound 0.005 µM): 1.06
relative viability ([4]; first compound 0.01581 µM): 1.42
relative viability ([4]; first compound 0.05 µM): 1.15
relative viability ([4]; first compound 0.1581 µM): 1.1
relative viability ([4]; first compound 0.5 µM): 1.17
relative viability ([5]; first compound 0.005 µM): 0.957
relative viability ([5]; first compound 0.01581 µM): 0.934
relative viability ([5]; first compound 0.05 µM): 0.841
relative viability ([5]; first compound 0.1581 µM): 0.878
relative viability ([5]; first compound 0.5 µM): 0.91

O=C(O)c1ccc(-c2c[nH]c3ncc(-c4ccccc4)cc23)cc1C1CCCC1 + O=C(CCCCCCC(=O)Nc1ccccc1)NO [Vorinostat] (partner 1 µM)
relative viability ([1]; first compound 0.04 µM): 0.349
relative viability ([1]; first compound 0.1265 µM): 0.596
relative viability ([1]; first compound 0.4 µM): 0.62
relative viability ([1]; first compound 1.265 µM): 0.462
relative viability ([2]; first compound 0.04 µM): 0.648
relative viability ([2]; first compound 0.1265 µM): 0.581
relative viability ([2]; first compound 0.4 µM): 0.331
relative viability ([3]; first compound 0.04 µM): 0.739
relative viability ([3]; first compound 0.1265 µM): 0.786
relative viability ([3]; first compound 0.4 µM): 0.772
relative viability ([3]; first compound 1.265 µM): 0.686
relative viability ([7]; first compound 0.04 µM): 0.976
relative viability ([7]; first compound 0.1265 µM): 1.07
relative viability ([7]; first compound 0.4 µM): 1.13
relative viability ([7]; first compound 1.265 µM): 1.03
relative viability ([4]; first compound 0.04 µM): 1.13
relative viability ([4]; first compound 0.1265 µM): 1.19
relative viability ([4]; first compound 0.4 µM): 1.27
relative viability ([4]; first compound 1.265 µM): 0.876
relative viability ([5]; first compound 0.04 µM): 0.932
relative viability ([5]; first compound 0.1265 µM): 0.984
relative viability ([5]; first compound 0.4 µM): 0.843
relative viability ([5]; first compound 1.265 µM): 1.11
